Source: patent US6979686B1, “Substituted pyrazoles as p38 kinase inhibitors” (Pharmacia Corporation, priority 2001, dated 2005)

Target: T1, human p38 kinase alpha (Homo sapiens, UniProt Q16539)
T1 construct: GST (N, cleaved yes); made in house; host or cells: E. coli DH10B
Test: p38 kinase in vitro assay, phosphorylation of biotinylated PHAS-I with 32P-ATP
Format: biochemical
Details: @ 1.0 uM

T1 sequence (Q16539 whole entry): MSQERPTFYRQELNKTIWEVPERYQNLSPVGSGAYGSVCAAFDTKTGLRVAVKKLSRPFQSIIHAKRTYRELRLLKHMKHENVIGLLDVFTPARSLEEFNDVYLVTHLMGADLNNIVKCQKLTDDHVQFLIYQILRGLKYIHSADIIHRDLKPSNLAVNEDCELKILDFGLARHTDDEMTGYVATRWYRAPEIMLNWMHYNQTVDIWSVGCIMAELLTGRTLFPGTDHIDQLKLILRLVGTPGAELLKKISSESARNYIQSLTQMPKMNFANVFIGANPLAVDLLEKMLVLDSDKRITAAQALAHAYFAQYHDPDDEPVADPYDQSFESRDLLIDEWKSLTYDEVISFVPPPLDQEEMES

| Compound | P38 alpha kinase % inhib @ conc. (uM) |
| --- | --- |
| CC(Oc1ccccc1)C(=O)NCCc1[nH]nc(-c2ccc(F)cc2)c1-c1ccncc1 (centres unmarked) [Example B-1009] | 80.0% @ |
| CC(C)COC(=O)NCCc1[nH]nc(-c2ccc(F)cc2)c1-c1ccncc1 [Example B-1010] | 75.0% @ |
| CC(C)S(=O)(=O)NCCc1[nH]nc(-c2ccc(F)cc2)c1-c1ccncc1 [Example B-1015] | 77.0% @ |
| O=S(=O)(NCCc1[nH]nc(-c2ccc(F)cc2)c1-c1ccncc1)C(F)(F)F [Example B-1019] | 82.0% @ |
| CCCCS(=O)(=O)NCCc1[nH]nc(-c2ccc(F)cc2)c1-c1ccncc1 [Example B-1022] | 84.0% @ |
| CC(C)NC(=O)NCCc1[nH]nc(-c2ccc(F)cc2)c1-c1ccncc1 [Example B-1029] | 69.0% @ |
| NC(=O)NCCc1[nH]nc(-c2ccc(F)cc2)c1-c1ccncc1 [Example B-1030] | 76.0% @ |
| O=C(NCCc1[nH]nc(-c2ccc(F)cc2)c1-c1ccncc1)N1CCCC1 [Example B-1032] | 76.0% @ |
| O=C(NCCc1[nH]nc(-c2ccc(F)cc2)c1-c1ccncc1)N1CCOCC1 [Example B-1033] | 86.0% @ |
| O=C(NCCc1[nH]nc(-c2ccc(F)cc2)c1-c1ccncc1)Nc1ccc(F)cc1 [Example B-1034] | 66.0% @ |
| CN(C)C(=O)NCCc1[nH]nc(-c2ccc(F)cc2)c1-c1ccncc1 [Example B-1035] | 75.0% @ |
| O=C(NCCc1[nH]nc(-c2ccc(F)cc2)c1-c1ccncc1)Nc1ccccc1F [Example B-1038] | 57.0% @ |
| C=CCNC(=O)NCCc1[nH]nc(-c2ccc(F)cc2)c1-c1ccncc1 [Example B-1040] | 72.0% @ |
| CCCNC(=O)NCCc1[nH]nc(-c2ccc(F)cc2)c1-c1ccncc1 [Example B-1041] | 70.0% @ |
| C[C@H](NC(=O)NCCc1[nH]nc(-c2ccc(F)cc2)c1-c1ccncc1)c1ccccc1 [Example B-1042] | 79.0% @ |
| O=C(NCCc1[nH]nc(-c2ccc(F)cc2)c1-c1ccncc1)Nc1cccc(F)c1 [Example B-1046] | 72.0% @ |
| COc1ccc(NC(=O)NCCc2[nH]nc(-c3ccc(F)cc3)c2-c2ccncc2)cc1 [Example B-1047] | 72.0% @ |
| CCN(CC)C(=O)NCCc1[nH]nc(-c2ccc(F)cc2)c1-c1ccncc1 [Example B-1048] | 67.0% @ |
| CCNC(=O)NCCc1[nH]nc(-c2ccc(F)cc2)c1-c1ccncc1 [Example B-1049] | 67.0% @ |
| O=C(Cc1cccs1)NCCc1[nH]nc(-c2ccc(F)cc2)c1-c1ccncc1 [Example B-1051] | 68.0% @ |
| CC(C)(C)C(=O)NCCc1[nH]nc(-c2ccc(F)cc2)c1-c1ccncc1 [Example B-1052] | 69.0% @ |
| CCCOC(=O)NCCc1[nH]nc(-c2ccc(F)cc2)c1-c1ccncc1 [Example B-1053] | 78.0% @ |
| CCOC(=O)NCCc1[nH]nc(-c2ccc(F)cc2)c1-c1ccncc1 [Example B-1054] | 79.0% @ |
| CC(C)OC(=O)NCCc1[nH]nc(-c2ccc(F)cc2)c1-c1ccncc1 [Example B-1057] | 85.0% @ |

Results, then the compound that gave them:

| P38 alpha kinase % inhib @ conc. (uM) | Compound |
| --- | --- |
| 72.0% 2 | Cc1ccc(S(=O)(=O)NC(Cc2ccccc2)C(=O)NCCc2[nH]nc(-c3ccc(F)cc3)c2-c2ccncc2)cc1 (centres unmarked) [Example B-1011] |
| 88.0% @ | O=S(=O)(NCCc1[nH]nc(-c2ccc(F)cc2)c1-c1ccncc1)c1ccccc1 [Example B-1014] |
| 96.0% @ | O=S(=O)(Cc1ccccc1)NCCc1[nH]nc(-c2ccc(F)cc2)c1-c1ccncc1 [Example B-1017] |
| 88.0% @ | O=S(=O)(NCCc1[nH]nc(-c2ccc(F)cc2)c1-c1ccncc1)c1ccc(F)cc1F [Example B-1018] |
| 82.0% @ | CCCS(=O)(=O)NCCc1[nH]nc(-c2ccc(F)cc2)c1-c1ccncc1 [Example B-1021] |
| 93.0% @ | CCS(=O)(=O)NCCc1[nH]nc(-c2ccc(F)cc2)c1-c1ccncc1 [Example B-1023] |
| 89.0% @ | CS(=O)(=O)NCCc1[nH]nc(-c2ccc(F)cc2)c1-c1ccncc1 [Example B-1024] |
| 61.0% @ | COc1ccc(S(=O)(=O)NCCc2[nH]nc(-c3ccc(F)cc3)c2-c2ccncc2)cc1 [Example B-1025] |
| 87.0% @ | O=S(=O)(NCCc1[nH]nc(-c2ccc(F)cc2)c1-c1ccncc1)c1cccs1 [Example B-1026] |
| 70.0% @ | COc1ccc(S(=O)(=O)NCCc2[nH]nc(-c3ccc(F)cc3)c2-c2ccncc2)cc1OC [Example B-1028] |
| 69.0% @ | O=C(NCCc1[nH]nc(-c2ccc(F)cc2)c1-c1ccncc1)NCc1ccccc1 [Example B-1031] |
| 64.0% @ | O=C(NCCc1[nH]nc(-c2ccc(F)cc2)c1-c1ccncc1)Nc1ccccc1 [Example B-1043] |
| 94.0% @ | O=C(NCCc1ccccc1)NCCc1[nH]nc(-c2ccc(F)cc2)c1-c1ccncc1 [Example B-1044] |

Same assay, conditions: in vitro P38-alpha kinase inhibition; read-out: P38 alpha kinase IC50

| Compound | IC50 |
| --- | --- |
| CC(=O)Nc1nc(C)c(S(=O)(=O)NCCc2[nH]nc(-c3ccc(F)cc3)c2-c2ccncc2)s1 [Example B-1058] | 660 nM |
| Cc1cc(C)c(S(=O)(=O)NCCc2[nH]nc(-c3ccc(F)cc3)c2-c2ccncc2)c(C)c1 [Example B-1067] | 1600 nM |
| CC1(C)C2CCC1(S(=O)(=O)NCCc1[nH]nc(-c3ccc(F)cc3)c1-c1ccncc1)C(=O)C2 (centres unmarked) [Example B-1100] | 220 nM |
| Cc1noc(C)c1S(=O)(=O)NCCc1[nH]nc(-c2ccc(F)cc2)c1-c1ccncc1 [Example B-1104] | 120 nM |

Continued, values first:

| IC50 | Compound |
| --- | --- |
| 30 nM | O=S(=O)(NCCc1[nH]nc(-c2ccc(F)cc2)c1-c1ccncc1)c1ccc(Cl)cc1 [Example B-1061] |
| 560 nM | O=C(O)c1ccccc1S(=O)(=O)NCCc1[nH]nc(-c2ccc(F)cc2)c1-c1ccncc1 [Example B-1065] |
| < 100 nM | O=S(=O)(NCCc1[nH]nc(-c2ccc(F)cc2)c1-c1ccncc1)c1cc(Cl)ccc1Cl [Example B-1066] |
| 220 nM | O=S(=O)(NCCc1[nH]nc(-c2ccc(F)cc2)c1-c1ccncc1)c1cccc2ccccc12 [Example B-1069] |
| < 100 nM | O=[N+]([O-])c1ccccc1CS(=O)(=O)NCCc1[nH]nc(-c2ccc(F)cc2)c1-c1ccncc1 [Example B-1070] |
| < 100 nM | O=S(=O)(NCCc1[nH]nc(-c2ccc(F)cc2)c1-c1ccncc1)c1cccc2cccnc12 [Example B-1071] |
| 230 nM | CC(C)c1ccc(S(=O)(=O)NCCc2[nH]nc(-c3ccc(F)cc3)c2-c2ccncc2)cc1 [Example B-1074] |
| < 100 nM | O=S(=O)(NCCc1[nH]nc(-c2ccc(F)cc2)c1-c1ccncc1)c1ccc(F)cc1Cl [Example B-1077] |
| 260 nM | N#Cc1ccccc1S(=O)(=O)NCCc1[nH]nc(-c2ccc(F)cc2)c1-c1ccncc1 [Example B-1078] |
| < 100 nM | Cc1ccc(F)cc1S(=O)(=O)NCCc1[nH]nc(-c2ccc(F)cc2)c1-c1ccncc1 [Example B-1079] |
| < 100 nM | O=S(=O)(NCCc1[nH]nc(-c2ccc(F)cc2)c1-c1ccncc1)c1c(Cl)cccc1Cl [Example B-1081] |
| < 100 nM | O=S(=O)(NCCc1[nH]nc(-c2ccc(F)cc2)c1-c1ccncc1)c1ccccc1Br [Example B-1082] |
| < 100 nM | O=S(=O)(NCCc1[nH]nc(-c2ccc(F)cc2)c1-c1ccncc1)c1cccc(Br)c1 [Example B-1083] |
| < 100 nM | O=S(=O)(NCCc1[nH]nc(-c2ccc(F)cc2)c1-c1ccncc1)c1ccccc1C(F)(F)F [Example B-1086] |
| 50 nM | O=S(=O)(NCCc1[nH]nc(-c2ccc(F)cc2)c1-c1ccncc1)c1ccc(C(F)(F)F)cc1 [Example B-1087] |
| 730 nM | CCc1ccc(S(=O)(=O)NCCc2[nH]nc(-c3ccc(F)cc3)c2-c2ccncc2)cc1 [Example B-1088] |
| < 100 nM | Cc1cccc(S(=O)(=O)NCCc2[nH]nc(-c3ccc(F)cc3)c2-c2ccncc2)c1 [Example B-1089] |
| < 100 nM | O=S(=O)(NCCc1[nH]nc(-c2ccc(F)cc2)c1-c1ccncc1)c1cccc(Cl)c1 [Example B-1090] |
| < 100 nM | O=S(=O)(NCCc1[nH]nc(-c2ccc(F)cc2)c1-c1ccncc1)c1ccccc1Cl [Example B-1091] |
| 270 nM | O=S(=O)(NCCc1[nH]nc(-c2ccc(F)cc2)c1-c1ccncc1)c1cc(Cl)cc(Cl)c1 [Example B-1092] |
| 13 nM | O=S(=O)(NCCc1[nH]nc(-c2ccc(F)cc2)c1-c1ccncc1)c1ccc(F)c(Cl)c1 [Example B-1094] |
| < 100 nM | Cc1cccc(Cl)c1S(=O)(=O)NCCc1[nH]nc(-c2ccc(F)cc2)c1-c1ccncc1 [Example B-1095] |
| < 100 nM | Cc1ccc(C)c(S(=O)(=O)NCCc2[nH]nc(-c3ccc(F)cc3)c2-c2ccncc2)c1 [Example B-1096] |
| < 100 nM | Cc1ccccc1S(=O)(=O)NCCc1[nH]nc(-c2ccc(F)cc2)c1-c1ccncc1 [Example B-1097] |
| < 100 nM | COc1ccc(C)cc1S(=O)(=O)NCCc1[nH]nc(-c2ccc(F)cc2)c1-c1ccncc1 [Example B-1098] |
| 260 nM | O=S(=O)(NCCc1[nH]nc(-c2ccc(F)cc2)c1-c1ccncc1)c1cccc(C(F)(F)F)c1 [Example B-1099] |
| 26 nM | O=S(=O)(NCCc1[nH]nc(-c2ccc(F)cc2)c1-c1ccncc1)c1ccc(Cl)s1 [Example B-1101] |
| 35 nM | COc1ccc(Br)cc1S(=O)(=O)NCCc1[nH]nc(-c2ccc(F)cc2)c1-c1ccncc1 [Example B-1102] |
| 94 nM | O=S(=O)(NCCc1[nH]nc(-c2ccc(F)cc2)c1-c1ccncc1)c1ccc2ccccc2c1 [Example B-1103] |
| < 100 nM | O=S(=O)(NCCc1[nH]nc(-c2ccc(F)cc2)c1-c1ccncc1)c1cccc2nonc12 [Example B-1105] |
